Measured values: ChEMBL document CHEMBL1201862, “PubChem BioAssay data set” (2004)
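Assay format: 96-well plates, 48-hour exposure. GI50 = concentration required for 50% inhibition of growth.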 Active and inactive are the calls of the source. Cut-off read from the data, not from the text of the source: active = GI50 up to about 1.1 µM and inactive = higher.

Assays:
Experiment in all cases: inhibition of tumour cell growth, NCI panel, 48 h
MOLT-4 = system: MOLT-4
SW-620 = system: SW-620
SK-MEL-5 = system: SK-MEL-5
A549 = system: A549
SK-OV-3 = system: SK-OV-3
UO-31 = system: UO-31
IGROV-1 = system: IGROV-1
NCI-H226 = system: NCI-H226
COLO 205 = system: COLO 205
HT-29 = system: HT-29
SF-539 = system: SF-539
HOP-92 = system: HOP-92
LOX IMVI = system: LOX IMVI
K562 = system: K562
OVCAR-4 = system: OVCAR-4
SF-268 = system: SF-268
HOP-62 = system: HOP-62
SK-MEL-2 = system: SK-MEL-2
OVCAR-5 = system: OVCAR-5

Structure (SMILES)	GI50 (MOLT-4)	GI50 (SW-620)	GI50 (SK-MEL-5)	GI50 (A549)	GI50 (SK-OV-3)	GI50 (UO-31)	GI50 (IGROV-1)	GI50 (NCI-H226)	GI50 (COLO 205)	GI50 (HT-29)	GI50 (SF-539)	GI50 (HOP-92)	GI50 (LOX IMVI)	GI50 (K562)	GI50 (OVCAR-4)	GI50 (SF-268)	GI50 (HOP-62)	GI50 (SK-MEL-2)	GI50 (OVCAR-5)
CN(C)C(=O)NCCN1CCCCCc2ccccc21	93.1 µM (inactive)	> 100 µM (inactive)	24.3 µM (inactive)	> 100 µM (inactive)	> 100 µM (inactive)	> 100 µM (inactive)	> 100 µM (inactive)	49.7 µM (inactive)	> 100 µM (inactive)	> 100 µM (inactive)	> 100 µM (inactive)	32.4 µM (inactive)	> 100 µM (inactive)	> 100 µM (inactive)	78 µM (inactive)	> 100 µM (inactive)	> 100 µM (inactive)	89.7 µM (inactive)	> 100 µM (inactive)
COC(=O)[C@H](Cc1ccccc1)NC(=O)N(CCNC(=O)OC(C)(C)C)c1ccccc1	> 100 µM (inactive)	> 100 µM (inactive)	> 100 µM (inactive)	> 100 µM (inactive)	> 100 µM (inactive)	> 100 µM (inactive)	> 100 µM (inactive)	> 100 µM (inactive)	> 100 µM (inactive)	> 100 µM (inactive)			> 100 µM (inactive)	> 100 µM (inactive)	> 100 µM (inactive)	> 100 µM (inactive)	> 100 µM (inactive)	> 100 µM (inactive)	> 100 µM (inactive)
OC[C@H]1C[C@@H]2Cc3ccccc3N2N1	> 100 µM (inactive)	> 100 µM (inactive)	> 100 µM (inactive)	> 100 µM (inactive)	> 100 µM (inactive)		> 100 µM (inactive)	> 100 µM (inactive)	> 100 µM (inactive)	> 100 µM (inactive)	> 100 µM (inactive)	> 100 µM (inactive)	> 100 µM (inactive)	> 100 µM (inactive)	> 100 µM (inactive)	> 100 µM (inactive)	> 100 µM (inactive)	> 100 µM (inactive)	> 100 µM (inactive)
Cn1cc(-c2csc(-c3cn(C)c4ccccc34)n2)c2ccccc21	14.1 µM (inactive)	59.4 µM (inactive)	26.9 µM (inactive)	37.6 µM (inactive)		> 100 µM (inactive)	27 µM (inactive)	32.2 µM (inactive)	> 100 µM (inactive)	> 100 µM (inactive)		20.8 µM (inactive)	36.4 µM (inactive)	11.2 µM (inactive)	22.2 µM (inactive)	58.2 µM (inactive)	17.6 µM (inactive)	38.8 µM (inactive)	95.9 µM (inactive)
CN(CCO)Cc1ncccc1O	25.5 µM (inactive)	> 100 µM (inactive)	> 100 µM (inactive)	> 100 µM (inactive)	> 100 µM (inactive)	> 100 µM (inactive)	> 100 µM (inactive)	> 100 µM (inactive)	> 100 µM (inactive)	> 100 µM (inactive)	> 100 µM (inactive)	> 100 µM (inactive)	> 100 µM (inactive)	0.495 µM (active)	> 100 µM (inactive)	> 100 µM (inactive)	> 100 µM (inactive)	> 100 µM (inactive)	> 100 µM (inactive)
CCOC(=O)c1cc(Br)c(-c2cc(C)no2)[nH]1	82 µM (inactive)	30 µM (inactive)	21.7 µM (inactive)	24.9 µM (inactive)	41.6 µM (inactive)	29.1 µM (inactive)		31 µM (inactive)	19.8 µM (inactive)	41.6 µM (inactive)	33.8 µM (inactive)	29.9 µM (inactive)	31.3 µM (inactive)		23.3 µM (inactive)	31.6 µM (inactive)		34.4 µM (inactive)	49 µM (inactive)
O=C(/C=C/c1ccc(OCc2ccccc2)cc1)NCc1ccc(C(=O)NCc2ccccc2)cc1	> 100 µM (inactive)	> 100 µM (inactive)	> 100 µM (inactive)	> 100 µM (inactive)	> 100 µM (inactive)	> 100 µM (inactive)	> 100 µM (inactive)	> 100 µM (inactive)	> 100 µM (inactive)	> 100 µM (inactive)	> 100 µM (inactive)	> 100 µM (inactive)	> 100 µM (inactive)	> 100 µM (inactive)	> 100 µM (inactive)	> 100 µM (inactive)	> 100 µM (inactive)	> 100 µM (inactive)	> 100 µM (inactive)
CC1CC/C(=C\c2ccc(N(C)C)cc2)C2=C1C(c1ccc(N(C)C)cc1)NC(=S)N2 (centres undefined)	> 100 µM (inactive)	> 100 µM (inactive)	> 100 µM (inactive)		> 100 µM (inactive)	> 100 µM (inactive)	> 100 µM (inactive)	> 100 µM (inactive)	> 100 µM (inactive)	> 100 µM (inactive)	> 100 µM (inactive)		> 100 µM (inactive)	> 100 µM (inactive)		> 100 µM (inactive)		> 100 µM (inactive)	> 100 µM (inactive)
COc1cccc(OCC(=N/NC(=O)c2ccncc2)/N=C/c2ccncc2)c1	> 100 µM (inactive)	> 100 µM (inactive)		> 100 µM (inactive)	> 100 µM (inactive)		> 100 µM (inactive)	> 100 µM (inactive)	> 100 µM (inactive)	> 100 µM (inactive)	> 100 µM (inactive)	> 100 µM (inactive)	> 100 µM (inactive)	> 100 µM (inactive)	> 100 µM (inactive)	> 100 µM (inactive)	> 100 µM (inactive)	> 100 µM (inactive)	> 100 µM (inactive)
Cn1c2ccc([N+](=O)[O-])cc2c(=O)n1Cc1ccccc1F	45.8 µM (inactive)	> 100 µM (inactive)	38.3 µM (inactive)	44.3 µM (inactive)	> 100 µM (inactive)	37.9 µM (inactive)	35.1 µM (inactive)	29.4 µM (inactive)	39.6 µM (inactive)	54.7 µM (inactive)	25.2 µM (inactive)	27.7 µM (inactive)	31.9 µM (inactive)	38.5 µM (inactive)	47.8 µM (inactive)	36.6 µM (inactive)	57 µM (inactive)	53.8 µM (inactive)	46.3 µM (inactive)
CON(C)C(C#N)=C(C#N)C#N	> 10 µM (inactive)	> 10 µM (inactive)	> 10 µM (inactive)	> 10 µM (inactive)	> 10 µM (inactive)	> 10 µM (inactive)	> 10 µM (inactive)	2.86 µM (inactive)	> 10 µM (inactive)	> 10 µM (inactive)	> 10 µM (inactive)		> 10 µM (inactive)	> 10 µM (inactive)	> 10 µM (inactive)	> 10 µM (inactive)	> 10 µM (inactive)	> 10 µM (inactive)	> 10 µM (inactive)
